Data reported in US20080096872A1, “Composition for Treatment of Pain Specification” (priority 2004, published 2008).
“Also recorded” adds a separate entry of the source.

Key:
Format in all cases: in vivo, human
[1] = tested on: Restless Legs Syndrome (RLS) subjects; assay: Clinical use: relief of Restless Legs Syndrome symptoms; conditions: clinical observation
Description: The blood levels of these patients measured below detection thresholds (20 ng/ml) and well below the blood levels recorded for pain relief (300 ng/ml). The NAC dose used in the present invention was far less than the 500 mg TID dose used as a supplement in treatment of diseases of inflammation.

[2] = tested on: patients on chronic methadone therapy for pain; assay: VAS pain and clinical comments in pain patients in clinical trial, with and without NAC
Description: (§1) 6 patients who have been on chronic methadone therapy for pain treatment and who are also taking NAC (600 mg/day) were studied. Patients were taking a range of methadone doses (30-160 mg/day).
(§2) This is a descriptive case study of 6 patients. A blood sample was obtained and used to measure serum methadone levels was obtained on methadone/NAC therapy. NAC was supplied by the investigator from assayed commercially available supply and pill counts were done to assure patient compliance. The patients were on the same methadone dose for over seven days; this ensures steady state levels of methadone had been achieved. The patients were then be asked to stop taking NAC for 7 days and were asked to return to the clinic for a second blood draw that measured serum methadone levels. Blood was collected in the offices of BAA. Three additional patients were studied, after the results from sera of the initial patients were assayed; these patients had baseline pain and fatigue assessments with the Piper Survey and were subsequently treated with NAC, serum determinations were sent, but have not as yet been completed. Thus patients on methadone were studied with NAC withdrawal (First Group) and NAC added to treatment (second group). The medical chart was reviewed for current medications, including over the counter medications, supplements, and herbal preparations; health conditions and available laboratory evaluations of electrolytes. The patient's age and gender was recorded.
(§3) BAA offices: A 5 ml blood sample will be obtained on methadone/NAC. Blood was drawn prior to a normally timed dose of methadone. The patient was instructed to discontinue taking NAC and returned in 7 days, at the same time, for a blood draw. This was also drawn prior to a normally timed dose of methadone. Patients completed a Piper survey for fatigue and distress on each occasion prior to the blood draw. The Piper score reflects a valid measure of fatigue. Higher numbers for the score are indicative of greater fatigue. Within the Piper survey a pain measure is also recorded. Both pain and fatigue scores were measured at each of the clinical visits one week apart. Trained study personnel completed chart review. Analysis of serum concentrations of methadone was completed at the Bioanalytical Core Lab at the Arizona Health Science Center (Sarver Heart Center, University of Arizona, Tucson).

[3] = tested on: patients on chronic methadone therapy for pain; assay: Piper survey for fatigue in chronic pain patients on methadone, with and without NAC
Description: as §1, §2, §3

[4] = tested on: patients with pain / restless legs syndrome; assay: Case histories: NAC added to oral ketamine (pain diary, patient reports); conditions: single patients; Case 1: NAC 25 mg, within 24 hours; Case 2: ketamine 150 mg/day
Description: The patient maintained a diary noting their level of pain with 1 being the lowest and 10 the highest. […] The patient was then administered 25 mg of NAC to be taken in combination with oral ketamine.

[5] = cases summarized and a few additional cases
[6] = on methadone without NAC (M001-M003 NAC stopped 7 days; M004-M006 baseline before NAC)

Structure (SMILES): COc1ccc2c(c1)[C@]13CCCC[C@@H]1[C@H](C2)N(C)CC3 [dextromethorphan]
- symptoms of Restless Legs Syndrome (RLS) [1]: treats restless legs syndrome

Structure (SMILES): CC(=O)N[C@@H](CS)C(=O)O [NAC, N-acetyl-cysteine]
- medication for pain when NAC is added to methadone [2, 5]: reduction in medication for pain
- opioid reduction ([2]; patient M004, after NAC added to methadone): subsequently; 30% opiod
- Comments: change on stopping NAC ([2]; patients M001-M003 on methadone, NAC stopped 7 days): Inc. irritabil; also recorded: Inc.pain/w
- Comments: patient report / clinical course after NAC added ([2]; patients M004-M006 on methadone, NAC added): Stopped all oxycondone; also recorded: “much less fatigue since starting; also recorded: “I do feel better taking NAC”
- fatigue when NAC is added to methadone [3, 5]: Improvement in fatigue
- Fatigue (yes/no) ([3]; on methadone with NAC, patients M001-M006): No
- Fatigue (yes/no) [3, 6]: Yes and No

Structure (SMILES): CCC(=O)C(CC(C)N(C)C)(c1ccccc1)c1ccccc1 (stereo not shown) [Mtd, methadone]
- Fatigue (yes/no) [3, 6]: Yes

Structure (SMILES): CNC1(c2ccccc2Cl)CCCCC1=O (stereo not shown) [ketamine]
- pain relief (patient report) [4]: noted pain relief
